Data from PubChem BioAssay AID2060512 (Molecular Pharmacology Branch, DTP, NCI, 2025).

Tested on: 186277-243-T-J2-PDC complex spheroid viability
Assay: Anticancer human tumor 186277-243-T-J2-PDC patient-derived colon adenocarcinoma cell line growth inhibition [GQUAD]
Conditions: for IC50: curve of first compound; for viability, T/C: stronger effect = lower value; active = viability on the fitted dose curve at most 10% of control; inactive = the rest
Procedure, shortened: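 Tumor cells were grown as complex spheroids with HUVEC endothelial cells and mesenchymal stem cells as stroma. G-quadruplex stabilizers were combined with targeted agents over half-log dilutions from near the clinical Cmax, or from 10 microM.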

[1] = second compound 0.0316 µM, first compound 0.0316 µM
[2] = second compound 0.0316 µM, first compound 0.1 µM
[3] = second compound 0.0316 µM, first compound 0.316 µM
[4] = second compound 0.0316 µM, first compound 1 µM
[5] = second compound 0.0316 µM, first compound 3.16 µM
[6] = second compound 0.0316 µM, first compound 10 µM
[7] = second compound 0.1 µM, first compound 0.0316 µM
[8] = second compound 0.1 µM, first compound 0.1 µM
[9] = second compound 0.1 µM, first compound 0.316 µM
[10] = second compound 0.1 µM, first compound 1 µM
[11] = second compound 0.1 µM, first compound 3.16 µM
[12] = second compound 0.1 µM, first compound 10 µM
[13] = second compound 0.316 µM, first compound 0.0316 µM
[14] = second compound 0.316 µM, first compound 0.1 µM
[15] = second compound 0.316 µM, first compound 0.316 µM
[16] = second compound 0.316 µM, first compound 1 µM
[17] = second compound 0.316 µM, first compound 3.16 µM
[18] = second compound 0.316 µM, first compound 10 µM
[19] = second compound 1 µM, first compound 0.0316 µM
[20] = second compound 1 µM, first compound 0.1 µM
[21] = second compound 1 µM, first compound 0.316 µM
[22] = second compound 1 µM, first compound 1 µM
[23] = second compound 1 µM, first compound 3.16 µM
[24] = second compound 1 µM, first compound 10 µM
[25] = second compound 3.16 µM, first compound 0.0316 µM
[26] = second compound 3.16 µM, first compound 0.1 µM
[27] = second compound 3.16 µM, first compound 0.316 µM
[28] = second compound 3.16 µM, first compound 1 µM
[29] = second compound 3.16 µM, first compound 3.16 µM
[30] = second compound 3.16 µM, first compound 10 µM
[31] = second compound 10 µM, first compound 0.0316 µM
[32] = second compound 10 µM, first compound 0.1 µM
[33] = second compound 10 µM, first compound 0.316 µM
[34] = second compound 10 µM, first compound 1 µM
[35] = second compound 10 µM, first compound 3.16 µM
[36] = second compound 10 µM, first compound 10 µM
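Also: spheroids exposed to drugs for 7 days.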
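For viability, T/C in this document: 100% = DMSO vehicle control viability.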

Nc1ccn(C2OC(CO)C(O)C2(F)F)c(=O)n1 (centres undefined) + CN(C)c1ccc(Nc2c3ccc(NC(=O)CCN4CCCC4)cc3nc3cc(NC(=O)CCN4CCCC4)ccc23)cc1
< 0.0316 µM: IC50 (second compound 0.0316 µM) | IC50 (second compound 0.1 µM) | IC50 (second compound 0.316 µM) | IC50 (second compound 1 µM) | IC50 (second compound 3.16 µM) | IC50 (second compound 10 µM)
inactive: viability, T/C [1] 10.1% | viability, T/C [7] 10.4% | viability, T/C [13] 10.9%
active: viability, T/C [2] 9.64% | viability, T/C [3] 9.07% | viability, T/C [4] 7.19% | viability, T/C [5] 8.19% | viability, T/C [6] 8.56% | viability, T/C [8] 7.92% | viability, T/C [9] 8% | viability, T/C [10] 7.8% | viability, T/C [11] 8.64% | viability, T/C [12] 8.31% | viability, T/C [14] 7.8% | viability, T/C [15] 7.03% | viability, T/C [16] 7% | viability, T/C [17] 8.54% | viability, T/C [18] 8.47% | viability, T/C [19] 8.71% | viability, T/C [20] 7.38% | viability, T/C [21] 6.7% | viability, T/C [22] 6.93% | viability, T/C [23] 8.1% | viability, T/C [24] 7.47% | viability, T/C [25] 8.12% | viability, T/C [26] 7.76% | viability, T/C [27] 7.81% | viability, T/C [28] 7.28% | viability, T/C [29] 8% | viability, T/C [30] 7.61% | viability, T/C [31] 8.33% | viability, T/C [32] 7.59% | viability, T/C [33] 7.12% | viability, T/C [34] 6.96% | viability, T/C [35] 7.9% | viability, T/C [36] 7.91%

O=c1[nH]cc(F)c(=O)[nH]1 + CN(C)c1ccc(Nc2c3ccc(NC(=O)CCN4CCCC4)cc3nc3cc(NC(=O)CCN4CCCC4)ccc23)cc1
6.32 µM: IC50 (second compound 3.16 µM)
7.5 µM: IC50 (second compound 1 µM)
> 10 µM: IC50 (second compound 0.0316 µM) | IC50 (second compound 0.1 µM) | IC50 (second compound 0.316 µM)
7.04 µM: IC50 (second compound 10 µM)
inactive: viability, T/C [1] 99% | viability, T/C [2] 97.1% | viability, T/C [3] 89% | viability, T/C [4] 98.8% | viability, T/C [5] 68.8% | viability, T/C [6] 50.8% | viability, T/C [7] 98.9% | viability, T/C [8] 87% | viability, T/C [9] 102% | viability, T/C [10] 102% | viability, T/C [11] 67.5% | viability, T/C [12] 54.2% | viability, T/C [13] 94.2% | viability, T/C [14] 94.5% | viability, T/C [15] 101% | viability, T/C [16] 93.4% | viability, T/C [17] 62.1% | viability, T/C [18] 51.1% | viability, T/C [19] 87.5% | viability, T/C [20] 91.3% | viability, T/C [21] 98.6% | viability, T/C [22] 112% | viability, T/C [23] 64.7% | viability, T/C [24] 45.1% | viability, T/C [25] 97.2% | viability, T/C [26] 104% | viability, T/C [27] 104% | viability, T/C [28] 101% | viability, T/C [29] 66.5% | viability, T/C [30] 39.1% | viability, T/C [31] 90.9% | viability, T/C [32] 98.4% | viability, T/C [33] 98.5% | viability, T/C [34] 102% | viability, T/C [35] 65.3% | viability, T/C [36] 43.3%
